Laboratory results as given in paper PMC6538641 (2019).

Assays:
[1] = system: U-AS1411 (DNA, G4, uracil in place of thymine at 12 and 13 (text: dT to rU substitutions)) GGTGGTGGTGGUUGTGGTGGTGGTGG; assay: CD melting; conditions: 10 mM KCl, 90 mM LiCl; 10 mM lithium cacodylate, pH 7.2; 2 molar equivalents C8; Tm without ligand 52.6 °C
[2] = system: 5'-FAM-AS1411-TAMRA-3' (DNA, G4) GGTGGTGGTGGTTGTGGTGGTGGTGG; assay: FRET melting; conditions: 10 mM KCl, 90 mM LiCl; 10 mM lithium cacodylate, pH 7.2; 1 µM C8, 0.2 µM DNA; no nucleolin; Tm 46.9 °C
[3] = system: AS1411 (DNA, G4) GGTGGTGGTGGTTGTGGTGGTGGTGG; assay: fluorescence titration of ligand, Hill model; conditions: 100 mM KCl, 30 mM potassium phosphate; pH 7.2; 5 μM C8; apparent; Hill n 2.8; SD ≤ 1 × 10^−8 M
[4] = system: AS1411 (DNA, G4) GGTGGTGGTGGTTGTGGTGGTGGTGG; assay: CD melting; conditions: 10 mM KCl, 90 mM LiCl; 10 mM lithium cacodylate, pH 7.2; 2 molar equivalents C8; Tm without ligand 56.3 °C
[5] = system: U-AS1411 (DNA, G4, uracil in place of thymine at 12 and 13 (text: dT to rU substitutions)) GGTGGTGGTGGUUGTGGTGGTGGTGG; assay: fluorescence titration of ligand, Hill model; conditions: 100 mM KCl, 30 mM potassium phosphate; pH 7.2; 5 μM C8; apparent; Hill n 2.5; SD ≤ 1 × 10^−8 M
nucleolin = nucleolin (UniProt P19338); assay: fluorescence titration; conditions: Fluorescence titration: buffer for the nucleolin titration not stated separately (C8-aptamer titrations: 30 mM potassium phosphate pH 7.2, 100 mM KCl)
Chain of UniProt P19338 (P19338 whole entry): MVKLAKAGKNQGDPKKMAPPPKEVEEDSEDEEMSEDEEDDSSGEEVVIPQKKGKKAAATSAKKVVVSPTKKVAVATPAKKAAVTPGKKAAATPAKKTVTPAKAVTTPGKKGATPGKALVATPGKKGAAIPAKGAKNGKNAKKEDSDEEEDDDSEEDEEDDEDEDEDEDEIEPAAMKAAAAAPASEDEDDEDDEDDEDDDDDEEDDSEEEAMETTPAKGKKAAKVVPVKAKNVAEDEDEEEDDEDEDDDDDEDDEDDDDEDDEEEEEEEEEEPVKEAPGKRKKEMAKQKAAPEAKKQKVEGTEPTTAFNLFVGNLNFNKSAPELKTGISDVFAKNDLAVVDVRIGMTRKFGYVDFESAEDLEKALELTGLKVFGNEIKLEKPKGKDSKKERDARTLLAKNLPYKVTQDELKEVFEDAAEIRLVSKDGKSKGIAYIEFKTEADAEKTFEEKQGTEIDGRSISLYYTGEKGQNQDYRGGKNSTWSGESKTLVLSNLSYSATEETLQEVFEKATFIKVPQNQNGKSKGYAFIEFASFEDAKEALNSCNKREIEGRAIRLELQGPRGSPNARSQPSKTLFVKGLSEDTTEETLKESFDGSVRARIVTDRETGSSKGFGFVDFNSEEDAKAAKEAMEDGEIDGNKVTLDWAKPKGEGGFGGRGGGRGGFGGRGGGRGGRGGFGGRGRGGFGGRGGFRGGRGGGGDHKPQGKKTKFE

Row | Compound | ΔTm [1] [°C] | ΔTm [2] [°C] | KD [3] [nM] | ΔTm [4] [°C] | KD [5] [nM] | Kd (nucleolin; no C8, Cy3-AS1411 at 1 uM (Kd far below probe concentration)) [nM] | Kd (nucleolin; with ligand C8, Cy3-AS1411 at 1 uM (Kd far below probe concentration)) [nM]
1 | CN(C)c1ccc2cc3ccc(N(C)C)cc3[n+](CCCCCCCCNC(=O)c3ccc(I)cc3)c2c1 | 24.5 ± 0.4 | 13.1 ± 0.8 | 1290 | 28.4 ± 0.2 | 1370 | – | –
2 | GGTGGTGGTGGTTGTGGTGGTGGTGG [Cy3-AS1411] | – | – | – | – | – | 0.00863 | 0.00638
